Entries after “also recorded” stand apart in the source; their conditions may differ.
What was measured:
[1] = test system: Aβ oligomers; conditions: added pre-cond, positive control, previously shown; cited from earlier work
[2] = test system: TgCRND8 mice; assay: Morris Water Maze spatial reference memory test in TgCRND8 mice; type: in vivo, mouse; conditions: six month old TgCRND8 mice, 28 days treatment from 5 months
Protocol: Mice. […] This initial dosage was chosen based upon the dosage of myo-cyclohexanehexyl (6-18 grams/day/adult or 86-257 mg/Kg/day) that is typically administered to human patients for various psychiatric disorders. […] A cohort of animals (n=10 mice per treatment arm) entered the study at five months of age, and outcomes were then analyzed after one month of treatment. The body weight, coat characteristics and in cage behaviour were monitored. Mannitol was used as a negative control for potential alterations in caloric intake. All experiments were performed according to the Canadian Council on Animal Care guidelines. Behavioural tests: Morris Water Maze testing was performed as previously described. After non-spatial pre-training, mice underwent place discrimination training for 5 days with 4-trials per day, followed by a cued visible platform to rule out general motivational, learning deficits and motor problems, and a probe trial to evaluate memory. […] Open field test for motor activity was preformed as described previously. Duration of walking, pausing and grooming were analyzed as indices of spontaneous locomotor activity. Sensorimotor function was examined with an Economex™ accelerating rotarod (Columbus Instruments, Columbus, Ohio), as described elsewhere. The rod was set to accelerate at a rate of 0.2 r.p.m./s, from an initial, constant speed of 5 r.p.m. Latency to fall was recorded in four daily trials, conducted at 30 min intervals. All mice were trained for seven days before testing. The test day performance score for each animal was obtained by summing its latency to fall over the four trials. Cerebral amyloid burden. Brains were removed and one hemisphere was fixed in 4% paraformaldehyde and embedded in paraffin wax in the mid sagittal plane. To generate sets of systematic uniform random sections, 5 μm serial sections were collected across the entire hemisphere. Sets of sections at 50 μm intervals were used for analyses (10-14 sections/set). Plaques were identified after antigen retrieval with formic acid, and incubation with primary anti-AD antibody (Dako M-0872), followed by secondary antibody (Dako StreptABCcomplex/horseradish kit). End products were visualized with DAB and were counter-stained with luxol fast blue. Amyloid plaque burden was assessed with Leco IA-3001 image analysis software interfaced with Leica microscope and Hitachi KP-M1U CCD video camera. Openlab imaging software (Improvision, Lexington, Mass.) was then used to convert micrographs to binary images for plaque number and plaque area determinations. Vascular amyloid burden was defined as amyloid originating from or surrounding blood vessels and was analysed similarly. Plasma and Cerebral Aβ Content. Hemi-brain samples were homogenized in a buffered sucrose solution, followed by either 0.4% diethylamine/100 mM NaCl for soluble Aβ levels or cold formic acid for the isolation of total Aβ. After neutralization, the samples were diluted and analyzed for Aβ40 and Aβ42 using commercially available kits (BIOSOURCE International). Each hemisphere was analyzed intriplicate and the mean values ±SEM reported. Western blot analyses were performed on all fractions using urea gels for Aβ species analyses. Aβ was detected using 6E10 (BIOSOURCE International) and Enhanced Chemiluminenscence (Amersham). Gliosis Quantitation. Five randomly selected, evenly spaced, sagittal sections were collected from paraformaldehyde-fixed and frozen hemispheres of treated and control mice. […]

[3] = test system: TgCRND8 mice; assay: Cerebral amyloid plaque burden (anti-Aβ immunostaining, image analysis); type: in vivo, mouse
Protocol: Mice. […] This initial dosage was chosen based upon the dosage of myo-cyclohexanehexyl (6-18 grams/day/adult or 86-257 mg/Kg/day) that is typically administered to human patients for various psychiatric disorders. […] A cohort of animals (n=10 mice per treatment arm) entered the study at five months of age, and outcomes were then analyzed after one month of treatment. The body weight, coat characteristics and in cage behaviour were monitored. Mannitol was used as a negative control for potential alterations in caloric intake. All experiments were performed according to the Canadian Council on Animal Care guidelines. Behavioural tests: Morris Water Maze testing was performed as previously described. After non-spatial pre-training, mice underwent place discrimination training for 5 days with 4-trials per day, followed by a cued visible platform to rule out general motivational, learning deficits and motor problems, and a probe trial to evaluate memory. […] Open field test for motor activity was preformed as described previously. Duration of walking, pausing and grooming were analyzed as indices of spontaneous locomotor activity. Sensorimotor function was examined with an Economex™ accelerating rotarod (Columbus Instruments, Columbus, Ohio), as described elsewhere. The rod was set to accelerate at a rate of 0.2 r.p.m./s, from an initial, constant speed of 5 r.p.m. Latency to fall was recorded in four daily trials, conducted at 30 min intervals. All mice were trained for seven days before testing. The test day performance score for each animal was obtained by summing its latency to fall over the four trials. Cerebral amyloid burden. Brains were removed and one hemisphere was fixed in 4% paraformaldehyde and embedded in paraffin wax in the mid sagittal plane. To generate sets of systematic uniform random sections, 5 μm serial sections were collected across the entire hemisphere. Sets of sections at 50 μm intervals were used for analyses (10-14 sections/set). Plaques were identified after antigen retrieval with formic acid, and incubation with primary anti-AD antibody (Dako M-0872), followed by secondary antibody (Dako StreptABCcomplex/horseradish kit). End products were visualized with DAB and were counter-stained with luxol fast blue. Amyloid plaque burden was assessed with Leco IA-3001 image analysis software interfaced with Leica microscope and Hitachi KP-M1U CCD video camera. Openlab imaging software (Improvision, Lexington, Mass.) was then used to convert micrographs to binary images for plaque number and plaque area determinations. Vascular amyloid burden was defined as amyloid originating from or surrounding blood vessels and was analysed similarly. Plasma and Cerebral Aβ Content. Hemi-brain samples were homogenized in a buffered sucrose solution, followed by either 0.4% diethylamine/100 mM NaCl for soluble Aβ levels or cold formic acid for the isolation of total Aβ. After neutralization, the samples were diluted and analyzed for Aβ40 and Aβ42 using commercially available kits (BIOSOURCE International). Each hemisphere was analyzed intriplicate and the mean values ±SEM reported. Western blot analyses were performed on all fractions using urea gels for Aβ species analyses. Aβ was detected using 6E10 (BIOSOURCE International) and Enhanced Chemiluminenscence (Amersham). Gliosis Quantitation. Five randomly selected, evenly spaced, sagittal sections were collected from paraformaldehyde-fixed and frozen hemispheres of treated and control mice. Sections were immunolabelled for astrocytes with anti-rat GFAP IgG2a, (Dako; diluted 1:50) and for microglia with anti-rat CD68 IgG2b (Dako; 1:50).

[4] = target: T1, Aβ42 (Homo sapiens, UniProt P05067); assay: Plasma Aβ42 levels; type: in vivo, mouse; conditions: TgCRND8 mice, 28 days of therapy at five months of age
T1 construct: analyzed for Aβ40 and Aβ42 using commercially available kits; from tissue; host or cells: TgCRND8 transgenic mice: hemi-brain (A3) and plasma (A5)
Protocol: Mice. […] This initial dosage was chosen based upon the dosage of myo-cyclohexanehexyl (6-18 grams/day/adult or 86-257 mg/Kg/day) that is typically administered to human patients for various psychiatric disorders. […] A cohort of animals (n=10 mice per treatment arm) entered the study at five months of age, and outcomes were then analyzed after one month of treatment. The body weight, coat characteristics and in cage behaviour were monitored. Mannitol was used as a negative control for potential alterations in caloric intake. All experiments were performed according to the Canadian Council on Animal Care guidelines. Behavioural tests: Morris Water Maze testing was performed as previously described. […] Duration of walking, pausing and grooming were analyzed as indices of spontaneous locomotor activity. […] Latency to fall was recorded in four daily trials, conducted at 30 min intervals. […] Amyloid plaque burden was assessed with Leco IA-3001 image analysis software interfaced with Leica microscope and Hitachi KP-M1U CCD video camera. […] Vascular amyloid burden was defined as amyloid originating from or surrounding blood vessels and was analysed similarly. […] After neutralization, the samples were diluted and analyzed for Aβ40 and Aβ42 using commercially available kits (BIOSOURCE International). Each hemisphere was analyzed intriplicate and the mean values ±SEM reported. […] Gliosis Quantitation. […]

[5] = TgCRND8 mice, oral, 28 days from 5 months of age, 6 months of age, listed as Epi-cyclohexanehexol

T1 sequence (P05067 672-713): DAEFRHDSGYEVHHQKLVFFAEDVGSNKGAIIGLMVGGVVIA

| Compound | production of Aβ oligomers [1] | spatial learning performance compared to non-Tg littermates [2] | spatial learning performance compared to untreated TgCRND8 littermates [2] | impact on brain Aβ40 or Aβ42 levels, percent area of the brain covered with plaques, or plaque number ([3]; TgCRND8 mice with pre-existing disease, 28 days) | Mean Plaque Size [3, 5] [μm^2] | Total Plaque Area [3, 5] [μm^2] | Total Plaque Count [3, 5] | Plasma Aβ42 levels [4] [pg/mL] |
| --- | --- | --- | --- | --- | --- | --- | --- | --- |
| Oc1cccc(Nc2ccc(Nc3cccc(O)c3)nn2)c1 [RS0406] | reduces the production of oligomers | – | – | – | – | – | – | – |
| OC1C(O)C(O)C(O)C(O)C1O (stereo not drawn) [epi-cyclohexanehexyl, 1,2,3,4,5/6-(epi-) cyclohexanehexyl, reference compound] | – | significantly poorer than the performance of their non-Tg littermates; also recorded: remained impaired with respect to non-Tg littermates | not significantly different from that of untreated TgCRND8 littermates | no significant impact | 346 ± 6 | 459706 ± 49966 | 1342 ± 114 | 1079 ± 79 |
